Reference: patent US20260193264A1, “BENZOYPARAZINE PYRAZINES AND THEIR USES” (FOGHORN THERAPEUTICS INC., priority 2022, published 2026)

Key:
[1] = target: T1, HiBiT-BRM fusion protein in stable HeLa cell line (Homo sapiens, UniProt P51531); assay: HiBiT-BRM cell-based degradation assay (Nano-Glo HiBiT Lytic Detection, 24 h); design: DC50: scale not given here; details: HeLa HiBiT-BRM cells; for DC50: read-out: BRM HiBit Degradation IC50; for BRM HiBit Degradation Maximum (%): top dose 30 μM
T1 construct: expressed in transfected cells
T1 sequence (P51531 whole entry, the tested form may be a part): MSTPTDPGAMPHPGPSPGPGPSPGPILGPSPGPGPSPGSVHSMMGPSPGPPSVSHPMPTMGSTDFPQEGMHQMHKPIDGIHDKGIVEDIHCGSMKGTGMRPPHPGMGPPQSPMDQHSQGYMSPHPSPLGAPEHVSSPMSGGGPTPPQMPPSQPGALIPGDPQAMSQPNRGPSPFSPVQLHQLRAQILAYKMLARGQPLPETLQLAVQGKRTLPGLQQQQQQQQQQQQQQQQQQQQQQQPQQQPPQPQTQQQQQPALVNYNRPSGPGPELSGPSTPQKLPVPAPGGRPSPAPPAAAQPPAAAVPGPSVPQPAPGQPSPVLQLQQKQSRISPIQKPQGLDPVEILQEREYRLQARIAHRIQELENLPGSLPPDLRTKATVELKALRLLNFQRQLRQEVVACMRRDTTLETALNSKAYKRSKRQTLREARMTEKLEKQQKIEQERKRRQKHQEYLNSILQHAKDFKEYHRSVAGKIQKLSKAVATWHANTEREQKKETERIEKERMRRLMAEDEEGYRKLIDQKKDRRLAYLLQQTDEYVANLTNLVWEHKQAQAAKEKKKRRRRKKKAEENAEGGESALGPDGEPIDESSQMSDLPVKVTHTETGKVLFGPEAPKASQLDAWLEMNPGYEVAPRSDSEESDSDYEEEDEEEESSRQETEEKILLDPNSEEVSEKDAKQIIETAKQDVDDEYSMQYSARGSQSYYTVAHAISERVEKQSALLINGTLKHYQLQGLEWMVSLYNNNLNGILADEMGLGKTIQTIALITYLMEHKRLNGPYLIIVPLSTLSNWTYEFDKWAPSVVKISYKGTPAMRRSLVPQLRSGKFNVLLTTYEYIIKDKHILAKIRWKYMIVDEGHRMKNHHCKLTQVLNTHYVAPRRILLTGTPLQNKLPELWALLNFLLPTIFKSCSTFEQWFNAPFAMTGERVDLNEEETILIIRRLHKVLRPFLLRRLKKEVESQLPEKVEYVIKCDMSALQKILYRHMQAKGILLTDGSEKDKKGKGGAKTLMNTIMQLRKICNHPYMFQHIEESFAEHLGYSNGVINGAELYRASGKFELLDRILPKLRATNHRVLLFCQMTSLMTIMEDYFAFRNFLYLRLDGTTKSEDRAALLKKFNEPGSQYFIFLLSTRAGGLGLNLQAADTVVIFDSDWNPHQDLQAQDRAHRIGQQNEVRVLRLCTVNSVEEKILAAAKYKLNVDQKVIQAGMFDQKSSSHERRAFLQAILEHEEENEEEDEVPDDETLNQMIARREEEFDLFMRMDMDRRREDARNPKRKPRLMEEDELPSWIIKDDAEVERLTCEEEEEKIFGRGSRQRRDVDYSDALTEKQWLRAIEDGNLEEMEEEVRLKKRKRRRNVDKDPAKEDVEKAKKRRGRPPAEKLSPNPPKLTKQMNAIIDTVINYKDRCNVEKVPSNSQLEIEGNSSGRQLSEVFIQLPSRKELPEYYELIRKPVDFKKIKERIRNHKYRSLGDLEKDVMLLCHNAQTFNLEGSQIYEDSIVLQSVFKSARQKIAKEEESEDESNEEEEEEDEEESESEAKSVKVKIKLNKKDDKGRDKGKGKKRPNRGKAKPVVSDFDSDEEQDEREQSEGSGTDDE
Procedure, shortened: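 HiBiT-tagged BRM levels in a stable HeLa line are measured after one day of compound treatment (up to 30 μM final, duplicate 10-point curves) by adding LgBiT lytic reagent and reading bioluminescence; values are expressed relative to vehicle and a 2 μM degrader control.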

[2] = target: T2, HiBit-BRG1 fusion protein in stable HeLa cell line expressing HiBit-BRG1 and LgBit (Homo sapiens, UniProt P51532); assay: HiBiT-BRG1 cell-based degradation assay (Nano-Glo HiBiT, 24 h); details: HeLa HiBit-BRG1/LgBit cells; for DC50: read-out: BRMG1 HiBit Degradation IC50; for Dmax: top dose 30 μM, read-out: BRG1 HiBit Degradation Maximum (%)
T2 construct: expressed in transfected cells
T2 sequence (P51532 whole entry, the tested form may be a part): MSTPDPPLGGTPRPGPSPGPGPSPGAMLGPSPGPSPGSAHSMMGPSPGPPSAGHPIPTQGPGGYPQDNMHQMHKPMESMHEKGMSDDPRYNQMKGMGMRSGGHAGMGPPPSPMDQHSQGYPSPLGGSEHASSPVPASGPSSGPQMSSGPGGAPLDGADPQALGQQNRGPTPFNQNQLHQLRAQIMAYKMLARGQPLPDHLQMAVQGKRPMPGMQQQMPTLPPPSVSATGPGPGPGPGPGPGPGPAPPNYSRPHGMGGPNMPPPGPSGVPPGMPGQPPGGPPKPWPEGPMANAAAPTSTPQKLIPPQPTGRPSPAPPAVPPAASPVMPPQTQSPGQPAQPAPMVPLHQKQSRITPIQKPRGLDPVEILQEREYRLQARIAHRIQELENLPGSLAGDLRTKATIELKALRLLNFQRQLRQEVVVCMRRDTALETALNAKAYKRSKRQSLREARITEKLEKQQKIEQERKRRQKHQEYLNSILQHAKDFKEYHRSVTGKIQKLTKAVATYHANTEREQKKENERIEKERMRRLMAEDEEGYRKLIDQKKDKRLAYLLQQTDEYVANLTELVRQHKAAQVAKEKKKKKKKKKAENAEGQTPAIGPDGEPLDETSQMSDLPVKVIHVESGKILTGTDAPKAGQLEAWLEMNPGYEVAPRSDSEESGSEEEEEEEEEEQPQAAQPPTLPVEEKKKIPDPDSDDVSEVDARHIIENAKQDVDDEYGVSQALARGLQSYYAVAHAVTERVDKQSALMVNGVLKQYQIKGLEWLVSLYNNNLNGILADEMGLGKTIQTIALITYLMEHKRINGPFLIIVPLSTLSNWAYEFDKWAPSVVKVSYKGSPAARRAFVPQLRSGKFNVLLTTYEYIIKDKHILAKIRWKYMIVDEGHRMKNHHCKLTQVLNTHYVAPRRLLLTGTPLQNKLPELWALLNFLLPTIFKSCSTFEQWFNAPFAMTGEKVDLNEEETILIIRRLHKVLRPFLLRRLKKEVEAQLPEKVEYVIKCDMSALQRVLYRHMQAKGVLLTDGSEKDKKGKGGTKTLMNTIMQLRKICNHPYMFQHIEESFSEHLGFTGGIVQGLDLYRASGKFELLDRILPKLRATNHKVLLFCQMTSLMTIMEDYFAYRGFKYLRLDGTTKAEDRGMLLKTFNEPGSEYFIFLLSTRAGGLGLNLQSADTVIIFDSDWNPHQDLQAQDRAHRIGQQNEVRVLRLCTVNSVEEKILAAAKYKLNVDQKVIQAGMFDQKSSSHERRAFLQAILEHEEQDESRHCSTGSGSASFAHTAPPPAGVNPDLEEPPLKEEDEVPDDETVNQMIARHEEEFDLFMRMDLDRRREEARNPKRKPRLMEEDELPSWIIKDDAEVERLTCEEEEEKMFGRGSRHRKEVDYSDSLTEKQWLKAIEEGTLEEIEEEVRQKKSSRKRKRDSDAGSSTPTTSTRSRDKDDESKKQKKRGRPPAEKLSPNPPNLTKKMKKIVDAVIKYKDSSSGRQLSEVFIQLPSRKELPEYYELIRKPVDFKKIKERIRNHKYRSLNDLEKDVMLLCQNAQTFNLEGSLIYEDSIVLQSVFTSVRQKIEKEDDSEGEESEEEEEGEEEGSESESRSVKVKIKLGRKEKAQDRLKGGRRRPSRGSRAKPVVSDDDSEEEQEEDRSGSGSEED
Procedure, shortened: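 Degradation calculated from NanoBiT luminescence relative to DMSO-treated cells (high) and cells given 2 μM known BRM/BRG1 degrader (low). HeLa cells stably expressing HiBiT-BRG1 plus LgBiT were exposed to compound for 24 h before lytic HiBiT detection.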

| SMILES | DC50 [1] [nM] | DC50 [2] [nM] | Dmax [2] [%] | BRM HiBit Degradation Maximum (%) [1] |
| --- | --- | --- | --- | --- |
| Cc1ncsc1-c1ccc([C@H](C)NC(=O)[C@@H]2C[C@@H](O)CN2C(=O)[C@@H](c2cc(N3CCC4(CC3)CC(c3ccc5nnc(-c6ccccc6O)cc5c3)C4)no2)C(C)C)cc1 [Compound 71, (2S,4R)-4-hydroxy-1-[(2R)-2-(3-{2-[3-(2-hydroxyphenyl)cinnolin-6-yl]-7-azaspiro[3.5]nonan-7-yl}-1,2-oxazol-5-yl)-3-methylbutanoyl]-N-[(1S)-1-[4-(4-methyl-1,3-thiazol-5-yl)phenyl]ethyl]pyrrolidine-2-carboxamide] | < 10 | < 10 | > 75 | A (“A” indicates maximum degradation ≥75%) |
| Cc1ncsc1-c1ccc([C@H](C)NC(=O)[C@@H]2C[C@@H](O)CN2C(=O)[C@@H](c2cc(N3CCC4(CCN(c5ccc6nnc(-c7ccccc7O)cc6c5)C4)CC3)no2)C(C)C)cc1 [Compound 72, (2S,4R)-4-hydroxy-1-((R)-2-(3-(2-(3-(2-hydroxyphenyl)cinnolin-6-yl)-2,8-diazaspiro [4.5]decan-8-yl)isoxazol-5-yl)-3-methylbutanoyl)-N-((S)-1-(4-(4-methylthiazol-5-yl)phenyl)ethyl)pyrrolidine-2-carboxamide] | < 10 | > 10 | > 75 | A (“A” indicates maximum degradation ≥75%) |
| Cc1ncsc1-c1ccc([C@H](C)NC(=O)[C@@H]2C[C@@H](O)CN2C(=O)[C@@H](c2cc(N3CC[C@@H](c4ccc5nnc(-c6ccccc6O)cc5c4)C3)no2)C(C)C)cc1 [Compound 73, (2S,4R)-4-hydroxy-1-((R)-2-(3-((S)-3-(3-(2-hydroxyphenyl)cinnolin-6-yl)pyrrolidin-1-yl)isoxazol-5-yl)-3-methylbutanoyl)-N-((S)-1-(4-(4-methylthiazol-5-yl)phenyl)ethyl)pyrrolidine-2-carboxamide] | < 10 |  | < 50 | A (“A” indicates maximum degradation ≥75%) |
| Cc1ncsc1-c1ccc([C@H](C)NC(=O)[C@@H]2C[C@@H](O)CN2C(=O)[C@@H](c2cc(N3CCC(c4ccc5cc(-c6ccccc6O)nnc5c4)CC3)no2)C(C)C)cc1 [Compound 74, (2S,4R)-4-hydroxy-1-((R)-2-(3-(4-(3-(2-hydroxyphenyl)cinnolin-7-yl)piperidin-1-yl)isoxazol-5-yl)-3-methylbutanoyl)-N-((S)-1-(4-(4-methylthiazol-5-yl)phenyl)ethyl)pyrrolidine-2-carboxamide] | < 10 |  | < 50 | A (“A” indicates maximum degradation ≥75%) |
| Cc1ncsc1-c1ccc([C@H](C)NC(=O)[C@@H]2C[C@@H](O)CN2C(=O)[C@@H](c2cc(-c3cnc(N4CC(c5cc(C6CC6)c6cc(-c7ccccc7O)nnc6c5)C4)nc3)no2)C(C)C)cc1 [Compound 77, (2S,4R)-1-((R)-2-(3-(2-(3-(5-cyclopropyl-3-(2-hydroxyphenyl)cinnolin-7-yl)azetidin-1-yl)pyrimidin-5-yl)isoxazol-5-yl)-3-methylbutanoyl)-4-hydroxy-N-((S)-1-(4-(4-methylthiazol-5-yl)phenyl)ethyl)pyrrolidine-2-carboxamide] | < 10 |  | < 50 | A (“A” indicates maximum degradation ≥75%) |
| Cc1cc(N2CCC(c3ccc4cc(-c5ccccc5O)nnc4c3)CC2)ncc1-c1cc([C@H](C(=O)N2C[C@H](O)C[C@H]2C(=O)N[C@@H](C)c2ccc(-c3scnc3C)cc2)C(C)C)on1 [Compound 81, (2S,4R)-4-hydroxy-1-((R)-2-(3-(6-(4-(3-(2-hydroxyphenyl)cinnolin-7-yl)piperidin-1-yl)-4-methylpyridin-3-yl)isoxazol-5-yl)-3-methylbutanoyl)-N-((S)-1-(4-(4-methylthiazol-5-yl)phenyl)ethyl)pyrrolidine-2-carboxamide] | < 10 |  | < 50 | A (“A” indicates maximum degradation ≥75%) |
| Cc1ncsc1-c1ccc([C@H](C)NC(=O)[C@@H]2C[C@@H](O)CN2C(=O)[C@@H](c2cc(N3CCC4(CC3)CC(c3ccc5cc(-c6cc(F)cc(F)c6O)nnc5c3)C4)no2)C(C)C)cc1 [Compound 82, (2S,4R)-1-((R)-2-(3-(2-(3-(3,5-difluoro-2-hydroxyphenyl)cinnolin-7-yl)-7-azaspiro[3.5]nonan-7-yl)isoxazol-5-yl)-3-methylbutanoyl)-4-hydroxy-N-((S)-1-(4-(4-methylthiazol-5-yl)phenyl)ethyl)pyrrolidine-2-carboxamide] | < 10 |  | < 50 | A (“A” indicates maximum degradation ≥75%) |
| Cc1ncsc1-c1ccc([C@H](C)NC(=O)[C@@H]2C[C@@H](O)CN2C(=O)[C@@H](c2cc(N3CC4(CC(Oc5ccc6cc(-c7ccccc7O)nnc6c5)C4)C3)no2)C(C)C)cc1 [Compound 84, (2S,4R)-4-hydroxy-1-((R)-2-(3-(6-((3-(2-hydroxyphenyl)cinnolin-7-yl)oxy)-2-azaspiro[3.3]heptan-2-yl)isoxazol-5-yl)-3-methylbutanoyl)-N-((S)-1-(4-(4-methylthiazol-5-yl)phenyl)ethyl)pyrrolidine-2-carboxamide] | < 10 | > 10 | > 50 | A (“A” indicates maximum degradation ≥75%) |

More lines, main results first:

| DC50 [1] [nM] | DC50 [2] [nM] | Dmax [2] [%] | SMILES | BRM HiBit Degradation Maximum (%) [1] |
| --- | --- | --- | --- | --- |
| < 10 | > 10 | > 75 | Cc1ncsc1-c1ccc([C@H](C)NC(=O)[C@@H]2C[C@@H](O)CN2C(=O)[C@@H](c2cc(N3CCC4(CC[C@H](c5ccc6nnc(-c7ccccc7O)cc6c5)C4)CC3)no2)C(C)C)cc1 [Compound 75, (2S,4R)-4-hydroxy-1-((R)-2-(3-((S)-2-(3-(2-hydroxyphenyl)cinnolin-6-yl)-8-azaspiro[4.5]decan-8-yl)isoxazol-5-yl)-3-methylbutanoyl)-N-((S)-1-(4-(4-methylthiazol-5-yl)phenyl)ethyl)pyrrolidine-2-carboxamide] | A (“A” indicates maximum degradation ≥75%) |
| < 10 | > 10 | > 75 | Cc1ncsc1-c1ccc([C@H](C)NC(=O)[C@@H]2C[C@@H](O)CN2C(=O)[C@@H](c2cc(N3CCC4(CC[C@@H](c5ccc6nnc(-c7ccccc7O)cc6c5)C4)CC3)no2)C(C)C)cc1 [Compound 76, (2S,4R)-4-hydroxy-1-((R)-2-(3-((R)-2-(3-(2-hydroxyphenyl)cinnolin-6-yl)-8-azaspiro[4.5]decan-8-yl)isoxazol-5-yl)-3-methylbutanoyl)-N-((S)-1-(4-(4-methylthiazol-5-yl)phenyl)ethyl)pyrrolidine-2-carboxamide] | A (“A” indicates maximum degradation ≥75%) |
| > 10 |  | < 50 | Cc1ncsc1-c1ccc([C@H](C)NC(=O)[C@@H]2C[C@@H](O)CN2C(=O)[C@@H](c2cc(N3CCC4(CC3)CC(Oc3ccc5cc(-c6ccccc6O)nnc5c3)C4)no2)C(C)C)cc1 [Compound 78, (2S,4R)-4-hydroxy-1-((R)-2-(3-(2-((3-(2-hydroxyphenyl)cinnolin-7-yl)oxy)-7-azaspiro[3.5]nonan-7-yl)isoxazol-5-yl)-3-methylbutanoyl)-N-((S)-1-(4-(4-methylthiazol-5-yl)phenyl)ethyl)pyrrolidine-2-carboxamide] | A (“A” indicates maximum degradation ≥75%) |
| < 10 | < 10 | > 75 | Cc1ncsc1-c1ccc([C@H](C)NC(=O)[C@@H]2C[C@@H](O)CN2C(=O)[C@@H](c2cc(-c3cnc(N4CC(c5cc6cc(-c7ccccc7O)nnc6cc5C5CC5)C4)nc3)no2)C(C)C)cc1 [Compound 79, (2S,4R)-1-((R)-2-(3-(2-(3-(7-cyclopropyl-3-(2-hydroxyphenyl)cinnolin-6-yl)azetidin-1-yl)pyrimidin-5-yl)isoxazol-5-yl)-3-methylbutanoyl)-4-hydroxy-N-((S)-1-(4-(4-methylthiazol-5-yl)phenyl)ethyl)pyrrolidine-2-carboxamide] | A (“A” indicates maximum degradation ≥75%) |
| < 10 | > 10 | > 75 | Cc1nc(N2CCC(c3ccc4cc(-c5ccccc5O)nnc4c3)CC2)ccc1-c1cc([C@H](C(=O)N2C[C@H](O)C[C@H]2C(=O)N[C@@H](C)c2ccc(-c3scnc3C)cc2)C(C)C)on1 [Compound 80, (2S,4R)-4-hydroxy-1-((R)-2-(3-(6-(4-(3-(2-hydroxyphenyl)cinnolin-7-yl)piperidin-1-yl)-2-methylpyridin-3-yl)isoxazol-5-yl)-3-methylbutanoyl)-N-((S)-1-(4-(4-methylthiazol-5-yl)phenyl)ethyl)pyrrolidine-2-carboxamide] | A (“A” indicates maximum degradation ≥75%) |
| < 10 | > 10 | > 75 | Cc1ncsc1-c1ccc([C@H](C)NC(=O)[C@@H]2C[C@@H](O)CN2C(=O)[C@@H](c2cc(N3CCC4(CCN(c5ccc6cc(-c7ccccc7O)nnc6c5)C4)CC3)no2)C(C)C)cc1 [Compound 83, (2S,4R)-4-hydroxy-1-((R)-2-(3-(2-(3-(2-hydroxyphenyl)cinnolin-7-yl)-2,8-diazaspiro [4.5]decan-8-yl)isoxazol-5-yl)-3-methylbutanoyl)-N-((S)-1-(4-(4-methylthiazol-5-yl)phenyl)ethyl)pyrrolidine-2-carboxamide] | A (“A” indicates maximum degradation ≥75%) |
